Data taken from PMC4994406, “Molecular cloning and characterization of a flavonoid-O-methyltransferase with broad substrate specificity and regioselectivity from Citrus depressa” (BMC Plant Biology, 2016).

Experiments:
CdFOMT5 [1] = target: T1, CdFOMT5 (Citrus depressa, UniProt A0A125T1T5); test: HPLC of methylated product; type: biochemical; conditions: 500 uM SAM, 100 uM substrate, 50 mM potassium phosphate pH 7.0, 30 °C, 1 h
T1 construct: gene FOMT5; full-length cDNA from fruit pericarp, C-terminal 6x His tag kept, pET21b(+) BamHI/SalI, E. coli BL21(DE3), Ni-Sepharose
T1 sequence (A0A125T1T5 1-353): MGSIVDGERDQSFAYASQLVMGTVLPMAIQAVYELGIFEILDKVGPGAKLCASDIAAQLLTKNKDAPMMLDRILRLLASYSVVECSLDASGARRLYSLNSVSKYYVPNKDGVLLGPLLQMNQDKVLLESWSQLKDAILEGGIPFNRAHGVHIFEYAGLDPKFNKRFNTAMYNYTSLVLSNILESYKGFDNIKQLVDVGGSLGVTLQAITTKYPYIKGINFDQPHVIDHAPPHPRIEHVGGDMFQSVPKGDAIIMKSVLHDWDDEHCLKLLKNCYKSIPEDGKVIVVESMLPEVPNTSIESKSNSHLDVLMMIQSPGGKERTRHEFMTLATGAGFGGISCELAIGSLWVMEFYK

CdFOMT5 [2] = target: T1, CdFOMT5; test: HPLC and LC-MS of O-methylated products; type: biochemical; conditions: 500 uM SAM, 100 uM substrate, 50 mM potassium phosphate pH 7.0, 30 °C, 1 h

## O=c1c(O)c(-c2ccccc2)oc2ccccc12 [3-hydroxyflavone]
CdFOMT5 [1]
  HPLC of methylated product: the highest activity was observed for 3-hydroxyflavone (flavonol) based on the peak area

## O=c1c(O)c(-c2ccc(O)c(O)c2)oc2cc(O)cc(O)c12 [S, quercetin]
CdFOMT5 [2]
  HPLC and LC-MS of O-methylated products: several peaks corresponding to O-methylated products were detected by HPLC analysis
